In ChEMBL document CHEMBL1158649, “Constituents of Pachygone ovata and Pharmacological Action of its Major Leaf Alkaloid” (J Nat Prod, 1979):
Activity calls are given as the source filed them. The rule behind the calls is not given here.

What was measured:
Mus musculus [1] = species: Mus musculus; test: Effect on behavioral activity in mouse in presence of mephenesin; assay type: functional, organism-based
[2] = Potentiation of amphetamine-induced lethal activity in Wistar albino rat assessed as mortality after 4 days; assay type: organism-based; settings: in vivo, read-out: Activity
Hoplobatrachus tigerinus = test: Induction of tetanic convulsion in frog at 40 mg/kg dosed in ventral lymph sac; assay type: functional, organism-based; design: dose 40 mg/kg
[3] = Acute toxicity in ip dosed mouse; assay type: organism-based; settings: in vivo
Mus musculus [4] = test: Effect on central nervous system in mouse assessed as behavioral activity at 10 to 20 mg/kg, ip; assay type: functional, organism-based
Mus musculus [5] = test: Effect on behavioral activity in mouse assessed as convulsion-induced hind limb extension at 30 to 40 mg/kg, ip; assay type: functional, organism-based; settings: Hindlimb
Mus musculus [6] = test: Potentiation of hexobarbitone-induced sleeping time in mouse at 5 mg/kg, ip; assay type: functional; settings: route intraperitoneal
Mus musculus [7] = test: Potentiation of hexobarbitone-induced sleeping time in mouse at 20 mg/kg, ip; assay type: functional; settings: route intraperitoneal
Mus musculus [8] = test: Increase in locomotor activity in mouse at 10 mg/kg, ip after 30 mins by actophotometer; assay type: functional, organism-based; design: dose 10 mg/kg
Rattus norvegicus [9] = test: Increase in rectal temperature in Wistar albino rat at 5 mg/kg, ip by telethermometer relative to control; assay type: functional; settings: route intraperitoneal
Rattus norvegicus [10] = test: Increase in rectal temperature in Wistar albino rat at 10 mg/kg, ip by telethermometer relative to control; assay type: functional; settings: route intraperitoneal
Rattus norvegicus [11] = test: Increase in rectal temperature in Wistar albino rat at 20 mg/kg, ip by telethermometer relative to control; assay type: functional; settings: route intraperitoneal
Rattus norvegicus [12] = test: Antinociceptive activity in Wistar albino rat assessed as increase in latent period of tail flick response at 10 mg/kg, ip by tail-hot wire technique; assay type: functional; settings: route intraperitoneal
Rattus norvegicus [13] = test: Antinociceptive activity in Wistar albino rat assessed as increase in latent period of tail flick response at 20 mg/kg, ip by tail-hot wire technique; assay type: functional; settings: route intraperitoneal
[14] = Toxicity in Wistar albino rat assessed as mortality after 4 days; assay type: organism-based; settings: in vivo, read-out: Activity
Mus musculus [15] = test: Induction of hypnosis in mouse at 100 mg/kg, ip; assay type: functional; settings: route intraperitoneal

Cc1ccccc1OCC(O)CO (stereo unspecified)
Activity (Mus musculus [1]): inactive

COc1ccc(C[C@H]2c3cc(O)c(OC)cc3CCN2C)cc1O [(S)-RETICULINE]
mortality at 96 h [2]: 60%
Activity (Hoplobatrachus tigerinus): Active
LD50 [3]: 56 mg/kg
Activity (Mus musculus [4]): Active
Activity (Mus musculus [5]): Active
Activity (Mus musculus [6]): 56.2 min
Activity (Mus musculus [7]): 23.7 min
Activity (Mus musculus [8]): Active
Activity (Rattus norvegicus [9]): 0.36 °C
Activity (Rattus norvegicus [10]): 0.69 °C
Activity (Rattus norvegicus [11]): 1.1 °C
Activity (Rattus norvegicus [12]): 7.8 s
Activity (Rattus norvegicus [13]): 11.9 s

CC(N)Cc1ccccc1 (stereo unspecified) [AMPHETAMINE]
mortality at 96 h [14]: 10%

CN1C(=O)NC(=O)C(C)(C2=CCCCC2)C1=O (stereo unspecified) [HEXOBARBITAL]
Activity (Mus musculus [15]): 31.3 min
